Patent publication US11498928B2, “Macrocyclic spiroethers as Mcl-1 inhibitors” (ASCENTAGE PHARMA (SUZHOU) CO., LTD., priority 2019, dated 2022)
Where two headings read alike, the source gives them in different places.

What was measured:
[1] = from CC(=O)O[C@@H](C1=C[C@H]([C@H](C)[C@@H](C)S(N)(=O)=O)C1)[C@@H]1CC[C@H]1CN1C[C@@]2(CCCc3c2ccc(Cl)c3F)COc2ccc(C(=O)O)cc21; amide bond; T3P, TEA; DCM; 14.5 mM; 2.0 h
OPM-2 cells = assay: Cell viability assay (OPM-2 cells), CCK-8; type: cell-based; details: 5% FBS
Outline: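 Viability read by CCK-8 absorbance (450 nm, 4 h reagent incubation) after 24 h compound exposure of 20000 OPM-2 cells per well at 37 °C. IC50 fitted by nonlinear regression on vehicle-normalized signal.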

[2] = Pharmacokinetic studies in mice (IV and PO); type: in vivo; details: for F: PO 10 mg/kg vs IV 2 mg/kg; for AUC(0-inf) / AUC(0-t) / clearance / half-life / Cmax / MRT last / Vd / Tmax / Vd/F: mouse, plasma; for MRT last: read-out: MRT0-last; for Vd: read-out: Vss; for Vd/F: read-out: Vz/F
Description: Administration: Mice in the IV group was dosed at 2 mg/kg (20% PEG 400+10% Cremophor EL+70% PBS 7.4) via tail vein injection (N=9). Mice in the PO group was dosed at 10 mg/kg (20% PEG 400+10% Cremophor EL+70% PBS 7.4) via oral gavage (N=9). All the mice were fasted overnight before dosing and had free access to food 4 hr post dosing.
Sampling: The animal was restrained manually at the designated time points (0.083, 0.25, 0.5, 1, 2, 4, 6, 8 and 24 hr), approximately 110 μL of blood sample was collected via retro-orbital puncture or cardiac puncture for terminal bleeding under the anesthesia with Isoflurane inhalation into K2EDTA tubes. The blood samples were maintained in wet ice first and centrifuged to obtain plasma (2000 g, 4° C., 5 min) within 15 minutes post sampling. All the plasma samples were stored at approximately −70° C. until analysis.

[3] = target: T1, Mcl-1 protein (residues 171-323) (Homo sapiens, UniProt Q07820); assay: Inhibition of Mcl-1 by fluorescence polarization (FP) competitive binding assay with FAM-Bid tracer; details: 2 nM FAM-Bid, 20 nM Mcl-1, 30 min
T1 construct: Tag-free Mcl-1 protein (residues 171-323) was used in the FP assay
Outline: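 Ten-point compound titrations compete against 2 nM fluorescein-Bid for 20 nM Mcl-1 (171-323, untagged). Incubation 30 min RT in PBS buffer with BGG and Triton, 5% DMSO final. mP reduction fitted by sigmoidal nonlinear regression for IC50.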

NCI-H929 cells = assay: Cell viability assay (NCI-H929 cells), CCK-8; type: cell-based; details: 5% FBS
Outline: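 Viability of NCI-H929 cells was measured using the Cell Counting Kit-8. After 24 hrs of compound exposure, 10 μL of CCK-8 solution per well was incubated for 1-4 hours, and absorbance was read at 450 nm on a BioTek Synergy 1MF. Readings were normalized to vehicle (DMSO) cells, and IC50 values were derived by nonlinear regression in GraphPad Prism 6.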

[4] = tested on: MV-4-11, NCI-H929 and OPM-2 xenografts; assay: In vivo xenograft studies (subcutaneous tumor models); details: tumor-bearing mice, as compared to AMG-176
Description: Female SCID mice at 4-6 weeks old were purchased from Shanghai Laboratory Animal Center (SLAC) and 1×10^7 MV-4-11 cells per mouse in 0.2 ml of PBS with 30% Matrigel were inoculated subcutaneously to the right flank of mice. Volumes of the tumor were estimated as V=LW^2/2, where L and W stand for tumor length and width. Mice with tumor at 50-150 mm^3 were randomized into treatment groups (5 mice per group) and started treatment. Compounds were administered at selected doses by p.o. or i.v. administration. The individual relative tumor volume (RTV) is calculated as following: RTV=Vt/V0, where Vt is the volume on each day of measurement and V0 is the volume on the initial day of treatment. Therapeutic effect of compound is expressed with relative tumor proliferation rate (T/C). The calculation formula is: T/C=mean RTV of the treated group/mean RTV of the control group. Treatments producing >20% lethality and/or 20% net body weight loss were considered toxic. Similar procedures were used in the for the NCI-H929 and OPM-2 xenograft experiments. See FIGS. 1, 3, 5, 7, 9, 11, and 13. Body weight changes in tumor-bearing mice were also measured. See FIGS. 2, 4, 6, 8, 10, 12, and 14.

[5] = IV 2 mg/kg, read-out: C0/Cmax (C0)
[6] = PO 10 mg/kg, read-out: C0/Cmax (Cmax)

T1 sequence (Q07820 171-323): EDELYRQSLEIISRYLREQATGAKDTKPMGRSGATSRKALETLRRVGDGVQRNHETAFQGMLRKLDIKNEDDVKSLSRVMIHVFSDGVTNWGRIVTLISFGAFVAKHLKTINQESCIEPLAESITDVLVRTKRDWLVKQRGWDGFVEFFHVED

SMILES | IC50 (OPM-2 cells; Homo sapiens, OPM-2, 24 h) [µM] | F [2] [%] | AUC(0-inf) ([2]; IV 2 mg/kg) [ng·h/mL] | AUC(0-t) ([2]; IV 2 mg/kg) [ng·h/mL] | clearance ([2]; IV 2 mg/kg) [mL/min/kg] | half-life ([2]; IV 2 mg/kg) [h] | Cmax [2, 5] [ng/mL] | MRT last ([2]; IV 2 mg/kg) [h] | Vd ([2]; IV 2 mg/kg) [L/kg] | AUC(0-inf) ([2]; PO 10 mg/kg) [ng·h/mL] | AUC(0-t) ([2]; PO 10 mg/kg) [ng·h/mL] | Tmax ([2]; PO 10 mg/kg) [h] | half-life ([2]; PO 10 mg/kg) [h] | Cmax [2, 6] [ng/mL] | MRT last ([2]; PO 10 mg/kg) [h] | Vd/F ([2]; PO 10 mg/kg) [L/kg] | IC50 [3] [µM] | IC50 (NCI-H929 cells; Homo sapiens, NCI-H929, 24 h) [µM] | other results
CC(=O)O[C@H]1C2=C[C@@H](C2)[C@H](C)[C@@H](C)S(=O)(=O)NC(=O)c2ccc3c(c2)N(C[C@@H]2CC[C@H]21)C[C@@]1(CCCc2c1ccc(Cl)c2F)CO3 | – | – | – | – | – | – | – | – | – | – | – | – | – | – | – | – | – | – | ring closure, yield of all isomers [1]: 100%
CO[C@H]1C2=C[C@@H](C2)[C@H](C)[C@@H](C)S(=O)(=O)NC(=O)c2ccc3c(c2)N(C[C@@H]2CC[C@H]21)C[C@@]1(CCCc2cc(Cl)ccc21)CO3 (single isomer, unassigned) [Cpd. No. 15 (isomer 1)] | 0.084 | 84.7 | 7870 | 7580 | 4.23 | 4.9 | 2740 | 4.8 | 1.5 | 33300 | 33000 | 2 | 3.4 | 2720 | 6.1 | 1.5 | 0.0097 | 0.018 | –
CO[C@H]1C2=CC(C2)[C@H](C)[C@@H](C)S(=O)(=O)NC(=O)c2ccc3c(c2)N(C[C@@H]2CC[C@H]21)C[C@@]1(CCCc2cc(Cl)cc(F)c21)CO3 (single isomer, unassigned) [20 (isomer 1)] | 2.69 | 60.2 | 7500 | 7350 | 4.45 | 6.7 | 6090 | 2.4 | 0.8 | 22600 | 22300 | 1 | 4.9 | 4860 | 3.6 | 3.1 | 0.012 | 2 | –
COCCO[C@H]1C2=CC(C2)[C@H](C)[C@@H](C)S(=O)(=O)NC(=O)c2ccc3c(c2)N(C[C@@H]2CC[C@H]21)C[C@@]1(CCCc2cc(Cl)ccc21)CO3 (mixture of isomers) [16 (mixture)] | 0.136 | 70.5 | 2440 | 2380 | 13.6 | 1.6 | 1260 | 1.9 | 1.7 | 8620 | 8360 | 2 | 4.9 | 1690 | 4.5 | 8.3 | 0.009 | 0.037 | –
CO[C@H]1C2=CC(C2)[C@H](C)CS(=O)(=O)NC(=O)c2ccc3c(c2)N(C[C@@H]2CC[C@H]21)C[C@@]1(CCCc2cc(Cl)ccc21)CO3 (single isomer, unassigned) [Cpd. No. 14 (Isomer 1)] | – | 134.6 | 4720 | 4690 | 7.07 | 3.6 | 1510 | 3.9 | 1.7 | 31800 | 31400 | 2 | 3.6 | 3920 | 5.6 | 1.6 | 0.0047 | – | IC50 (OPM-2 cells; 24 h): 0.208 µM; IC50 (NCI-H929 cells; 24 h): 0.026 µM
CO[C@H]1C2=C[C@@H](C2)[C@H](C)[C@@H](C)S(=O)(=O)NC(=O)c2ccc3c(c2)N(C[C@@H]2CC[C@H]21)C[C@@]1(CCCc2c1ccc(Cl)c2F)CO3 (single isomer, unassigned) [Cpd. No. 17 (isomer 1)] | 0.062 | 92.9 | 15200 | 13900 | 2.18 | 7 | 997 | 6.7 | 1.2 | 70700 | 56000 | 4 | 10.6 | 4350 | 8.3 | 2.2 | 0.0081 | 0.016 | body weight change (toxicity to the animals) [4]: less body weight change; tumor growth inhibition ([4]; p.o. or i.v.): surprisingly better tumor growth inhibition
